Results on 8 compounds are retold here after ChEMBL document CHEMBL1177694, “Multivalent catanionic GalCer analogs derived from first generation dendrimeric phosphonic acids” (Bioorg Med Chem, 2010).

Data set [1] deals with Human immunodeficiency virus 1. Nature of the data set: Antiviral activity against HIV1 LAI infected in human CEM-SS cells assessed as inhibition of viral replication after 5 days by MTT assay. Type of data set: functional, organism-based. Particulars: Human immunodeficiency virus 1, LAI, 120 h. In general terms: Tetrazolium assays rely on reduction of a dye to a coloured formazan, in cell work by metabolically active cells.

Data set [2] can be described thus: Cytotoxicity against human CEM-SS cells after 5 days by MTT assay. Type of data set: cell-based.
Data set [3] in a line: Therapeutic index, ratio of CC50 for human CEM-SS cells to IC50 for HIV1 LAI infected in human CEM-SS cells. Type of data set: cell-based. Conditions: CEM-SS cells (uninfected and infected with HIV1 LAI), read-out: Ratio CC50/IC50.

In the case of `CCCCCCCCCCC(C(=O)NCCc1ccc(OP(=S)(Oc2ccc(CCNC(=O)C(CCCCCCCCCC)P(=O)(O)O)cc2)N(C)/N=C/c2ccc(OP3(Oc4ccc(/C=N/N(C)P(=S)(Oc5ccc(CCNC(=O)C(CCCCCCCCCC)P(=O)(O)O)cc5)Oc5ccc(CCNC(=O)C(CCCCCCCCCC)P(=O)(O)O)cc5)cc4)=NP(Oc4ccc(/C=N/N(C)P(=S)(Oc5ccc(CCNC(=O)C(CCCCCCCCCC)P(=O)(O)O)cc5)Oc5ccc(CCNC(=O)C(CCCCCCCCCC)P(=O)(O)O)cc5)cc4)(Oc4ccc(/C=N/N(C)P(=S)(Oc5ccc(CCNC(=O)C(CCCCCCCCCC)P(=O)(O)O)cc5)Oc5ccc(CCNC(=O)C(CCCCCCCCCC)P(=O)(O)O)cc5)cc4)=NP(Oc4ccc(/C=N/N(C)P(=S)(Oc5ccc(CCNC(=O)C(CCCCCCCCCC)P(=O)(O)O)cc5)Oc5ccc(CCNC(=O)C(CCCCCCCCCC)P(=O)(O)O)cc5)cc4)(Oc4ccc(/C=N/N(C)P(=S)(Oc5ccc(CCNC(=O)C(CCCCCCCCCC)P(=O)(O)O)cc5)Oc5ccc(CCNC(=O)C(CCCCCCCCCC)P(=O)(O)O)cc5)cc4)=N3)cc2)cc1)P(=O)(O)O` (centres undefined), the IC50 – broadly, the concentration that gives 50% inhibition – in data set [1] worked out at 16 µM. Further, the CC50 (as a rule, the concentration that lowers cell viability or growth by half) at 120 h in data set [2] was > 100 µM. In addition, the selectivity ratio in data set [3] is > 6.

As for `CN(/N=C/c1ccc(OP2(Oc3ccc(/C=N/N(C)P(=S)(Oc4ccc(/C=C/P(=O)(O)O)cc4)Oc4ccc(/C=C/P(=O)(O)O)cc4)cc3)=NP(Oc3ccc(/C=N/N(C)P(=S)(Oc4ccc(/C=C/P(=O)(O)O)cc4)Oc4ccc(/C=C/P(=O)(O)O)cc4)cc3)(Oc3ccc(/C=N/N(C)P(=S)(Oc4ccc(/C=C/P(=O)(O)O)cc4)Oc4ccc(/C=C/P(=O)(O)O)cc4)cc3)=NP(Oc3ccc(/C=N/N(C)P(=S)(Oc4ccc(/C=C/P(=O)(O)O)cc4)Oc4ccc(/C=C/P(=O)(O)O)cc4)cc3)(Oc3ccc(/C=N/N(C)P(=S)(Oc4ccc(/C=C/P(=O)(O)O)cc4)Oc4ccc(/C=C/P(=O)(O)O)cc4)cc3)=N2)cc1)P(=S)(Oc1ccc(/C=C/P(=O)(O)O)cc1)Oc1ccc(/C=C/P(=O)(O)O)cc1`, the IC50 in data set [1] was found to be 0.65 µM. Besides, the CC50 at 120 h in data set [2] is > 100 µM. Moreover, in data set [3], the selectivity ratio was > 153.

As for `CN(/N=C/c1ccc(OP2(Oc3ccc(/C=N/N(C)P(=S)(Oc4ccc(C(O)P(=O)(O)O)cc4)Oc4ccc(C(O)P(=O)(O)O)cc4)cc3)=NP(Oc3ccc(/C=N/N(C)P(=S)(Oc4ccc(C(O)P(=O)(O)O)cc4)Oc4ccc(C(O)P(=O)(O)O)cc4)cc3)(Oc3ccc(/C=N/N(C)P(=S)(Oc4ccc(C(O)P(=O)(O)O)cc4)Oc4ccc(C(O)P(=O)(O)O)cc4)cc3)=NP(Oc3ccc(/C=N/N(C)P(=S)(Oc4ccc(C(O)P(=O)(O)O)cc4)Oc4ccc(C(O)P(=O)(O)O)cc4)cc3)(Oc3ccc(/C=N/N(C)P(=S)(Oc4ccc(C(O)P(=O)(O)O)cc4)Oc4ccc(C(O)P(=O)(O)O)cc4)cc3)=N2)cc1)P(=S)(Oc1ccc(C(O)P(=O)(O)O)cc1)Oc1ccc(C(O)P(=O)(O)O)cc1` (centres undefined), the IC50 in data set [1] is 50 µM. The CC50 at 120 h in data set [2] was > 100 µM. For the same compound, the selectivity ratio in data set [3] was > 2.

As to `CN(/N=C/c1ccc(OP2(Oc3ccc(/C=N/N(c4ccc(CCN(CP(=O)(O)O)CP(=O)(O)O)cc4)P(O)(=S)Oc4ccc(CCN(CP(=O)(O)O)CP(=O)(O)O)cc4)cc3)=NP(Oc3ccc(/C=N/N(C)P(=S)(Oc4ccc(CCN(CP(=O)(O)O)CP(=O)(O)O)cc4)Oc4ccc(CCN(CP(=O)(O)O)CP(=O)(O)O)cc4)cc3)(Oc3ccc(/C=N/N(C)P(=S)(Oc4ccc(CCN(CP(=O)(O)O)CP(=O)(O)O)cc4)Oc4cccc(CCN(CP(=O)(O)O)CP(=O)(O)O)c4)cc3)=NP(Oc3ccc(/C=N/N(C)P(=S)(Oc4ccc(CCN(CP(=O)(O)O)CP(=O)(O)O)cc4)Oc4ccc(CCN(CP(=O)(O)O)CP(=O)(O)O)cc4)cc3)(Oc3ccc(/C=N/N(C)P(=S)(Oc4ccc(CCN(CP(=O)(O)O)CP(=O)(O)O)cc4)Oc4ccc(CCN(CP(=O)(O)O)CP(=O)(O)O)cc4)cc3)=N2)cc1)P(=S)(Oc1ccc(CCN(CP(=O)(O)O)CP(=O)(O)O)cc1)Oc1ccc(CCN(CP(=O)(O)O)CP(=O)(O)O)cc1` (centres undefined), in data set [1], the IC50 turned out to be 20 µM. In data set [2], the CC50 at 120 h is > 100 µM. In data set [3], the selectivity ratio was > 5.

Turning to `CN(/N=C/c1ccc(OP2(Oc3ccc(/C=N/N(C)P(=S)(Oc4ccc(CCNC(=O)CP(=O)(O)O)cc4)Oc4ccc(CCNC(=O)CP(=O)(O)O)cc4)cc3)=NP(Oc3ccc(/C=N/N(C)P(=S)(Oc4ccc(CCNC(=O)CP(=O)(O)O)cc4)Oc4ccc(CCNC(=O)CP(=O)(O)O)cc4)cc3)(Oc3ccc(/C=N/N(C)P(=S)(Oc4ccc(CCNC(=O)CP(=O)(O)O)cc4)Oc4ccc(CCNC(=O)CP(=O)(O)O)cc4)cc3)=NP(Oc3ccc(/C=N/N(C)P(=S)(Oc4ccc(CCNC(=O)CP(=O)(O)O)cc4)Oc4ccc(CCNC(=O)CP(=O)(O)O)cc4)cc3)(Oc3ccc(/C=N/N(C)P(=S)(Oc4ccc(CCNC(=O)CP(=O)(O)O)cc4)Oc4ccc(CCNC(=O)CP(=O)(O)O)cc4)cc3)=N2)cc1)P(=S)(Oc1ccc(CCNC(=O)CP(=O)(O)O)cc1)Oc1ccc(CCNC(=O)CP(=O)(O)O)cc1`, the IC50 in data set [1] was determined as 25 µM. The CC50 at 120 h in data set [2] was > 100 µM. The selectivity ratio in data set [3] was > 4.

Regarding `CCCC(C(=O)NCCc1ccc(OP(=S)(Oc2ccc(CCNC(=O)C(CCC)P(=O)(O)O)cc2)N(C)/N=C/c2ccc(OP3(Oc4ccc(/C=N/N(C)P(=S)(Oc5ccc(CCNC(=O)C(CCC)P(=O)(O)O)cc5)Oc5ccc(CCNC(=O)C(CCC)P(=O)(O)O)cc5)cc4)=NP(Oc4ccc(/C=N/N(C)P(=S)(Oc5ccc(CCNC(=O)C(CCC)P(=O)(O)O)cc5)Oc5ccc(CCNC(=O)C(CCC)P(=O)(O)O)cc5)cc4)(Oc4ccc(/C=N/N(C)P(=S)(Oc5ccc(CCNC(=O)C(CCC)P(=O)(O)O)cc5)Oc5ccc(CCNC(=O)C(CCC)P(=O)(O)O)cc5)cc4)=NP(Oc4ccc(/C=N/N(C)P(=S)(Oc5ccc(CCNC(=O)C(CCC)P(=O)(O)O)cc5)Oc5ccc(CCNC(=O)C(CCC)P(=O)(O)O)cc5)cc4)(Oc4ccc(/C=N/N(C)P(=S)(Oc5ccc(CCNC(=O)C(CCC)P(=O)(O)O)cc5)Oc5ccc(CCNC(=O)C(CCC)P(=O)(O)O)cc5)cc4)=N3)cc2)cc1)P(=O)(O)O` (centres undefined), in data set [1], the concentration for half-maximal inhibition (IC50) was 1.5 µM. Further, the CC50 at 120 h in data set [2] is > 100 µM. Further, in data set [3], the selectivity ratio is > 67.

On to `CCCC(C(=O)NCCc1ccc(OP(=S)(Oc2ccc(CCNC(=O)C(CCC)P(=O)(O)O)cc2)N(C)/N=C/c2ccc(OP3(Oc4ccc(/C=N/N(C)P(=S)(Oc5ccc(CCNC(=O)C(CCC)P(=O)(O)O)cc5)Oc5ccc(CCNC(=O)C(CCC)P(=O)(O)O)cc5)cc4)=NP(Oc4ccc(/C=N/N(C)P(=S)(Oc5ccc(CCNC(=O)C(CCC)P(=O)(O)O)cc5)Oc5ccc(CCNC(=O)C(CCC)P(=O)(O)O)cc5)cc4)(Oc4ccc(/C=N/N(C)P(=S)(Oc5ccc(CCNC(=O)C(CCC)P(=O)(O)O)cc5)Oc5ccc(CCNC(=O)C(CCC)P(=O)(O)O)cc5)cc4)=NP(Oc4ccc(/C=N/N(C)P(=S)(Oc5ccc(CCNC(=O)C(CCC)P(=O)(O)O)cc5)Oc5ccc(CCNC(=O)C(CCC)P(=O)(O)O)cc5)cc4)(Oc4ccc(/C=N/N(C)P(=S)(Oc5ccc(CCNC(=O)C(CCC)P(=O)(O)O)cc5)Oc5ccc(CCNC(=O)C(CCC)P(=O)(O)O)cc5)cc4)=N3)cc2)cc1)P(=O)(O)O.CCCCCCCCCCCCCCCCNOC(CO)C(O)C(OC1OC(CO)C(O)C(O)C1O)C(O)CO.CCCCCCCCCCCCCCCCNOC(CO)C(O)C(OC1OC(CO)C(O)C(O)C1O)C(O)CO.CCCCCCCCCCCCCCCCNOC(CO)C(O)C(OC1OC(CO)C(O)C(O)C1O)C(O)CO.CCCCCCCCCCCCCCCCNOC(CO)C(O)C(OC1OC(CO)C(O)C(O)C1O)C(O)CO.CCCCCCCCCCCCCCCCNOC(CO)C(O)C(OC1OC(CO)C(O)C(O)C1O)C(O)CO.CCCCCCCCCCCCCCCCNOC(CO)C(O)C(OC1OC(CO)C(O)C(O)C1O)C(O)CO` (centres undefined), for which, in data set [1], the IC50 is 0.33 µM. Further, it took 1.5 µM to reach half-maximal cytotoxicity in data set [2] (CC50 at 120 h). For the same compound, the selectivity ratio in data set [3] was found to be 4.5.

On to `CCCCCCCCCCCCCCCCNOC(CO)C(O)C(OC1OC(CO)C(O)C(O)C1O)C(O)CO.CCCCCCCCCCCCCCCCNOC(CO)C(O)C(OC1OC(CO)C(O)C(O)C1O)C(O)CO.CCCCCCCCCCCCCCCCNOC(CO)C(O)C(OC1OC(CO)C(O)C(O)C1O)C(O)CO.CCCCCCCCCCCCCCCCNOC(CO)C(O)C(OC1OC(CO)C(O)C(O)C1O)C(O)CO.CCCCCCCCCCCCCCCCNOC(CO)C(O)C(OC1OC(CO)C(O)C(O)C1O)C(O)CO.CCCCCCCCCCCCCCCCNOC(CO)C(O)C(OC1OC(CO)C(O)C(O)C1O)C(O)CO.CN(/N=C/c1ccc(OP2(Oc3ccc(/C=N/N(C)P(=S)(Oc4ccc(CCNC(=O)CP(=O)(O)O)cc4)Oc4ccc(CCNC(=O)CP(=O)(O)O)cc4)cc3)=NP(Oc3ccc(/C=N/N(C)P(=S)(Oc4ccc(CCNC(=O)CP(=O)(O)O)cc4)Oc4ccc(CCNC(=O)CP(=O)(O)O)cc4)cc3)(Oc3ccc(/C=N/N(C)P(=S)(Oc4ccc(CCNC(=O)CP(=O)(O)O)cc4)Oc4ccc(CCNC(=O)CP(=O)(O)O)cc4)cc3)=NP(Oc3ccc(/C=N/N(C)P(=S)(Oc4ccc(CCNC(=O)CP(=O)(O)O)cc4)Oc4ccc(CCNC(=O)CP(=O)(O)O)cc4)cc3)(Oc3ccc(/C=N/N(C)P(=S)(Oc4ccc(CCNC(=O)CP(=O)(O)O)cc4)Oc4ccc(CCNC(=O)CP(=O)(O)O)cc4)cc3)=N2)cc1)P(=S)(Oc1ccc(CCNC(=O)CP(=O)(O)O)cc1)Oc1ccc(CCNC(=O)CP(=O)(O)O)cc1`, for which the IC50 in data set [1] was found to be 0.4 µM. This compound also yielded a CC50 at 120 h in data set [2] of 1.9 µM. Further, the selectivity ratio in data set [3] was 4.8.
